According to patent US20150231242A1, “COMBINATION OF CD37 ANTIBODIES WITH BENDAMUSTINE” (Boehringer Ingelheim International GmbH, priority 2012, published 2015):

Experiments:
[1] = test system: DoHH2 tumor cells; assay: DoHH2 human xenograft tumor model (Example 2); format: in vivo, CB-17 SCID mice; details: A2 10 mg/kg twice weekly, bendamustine 10 mg/kg twice weekly ip; present-tense example
[2] = Body weight / tolerability in DOHH2 tumor-bearing mice (Example 3); details: for tolerability in words: body weight as indicator of tolerability
[3] = test system: DOHH2 tumors (human follicular lymphoma); assay: Efficacy in subcutaneous DOHH2 human follicular lymphoma xenograft (Example 3); format: in vivo, C.B-17 scid mice; details: day 16; for anti-tumor effect in words: DOHH2 tumors
[4] = test system: Raji Burkitt lymphoma cells; assay: Apoptosis assay (Annexin V/PI staining, FACS) on Raji cells; format: cell-based, human; details: 48 h, A2 10 μg/ml, Annexin V positive cells, mean of three experiments
[5] = test system: Ramos Burkitt lymphoma cells; assay: Apoptosis assay (Annexin V/PI staining, FACS) on Ramos cells; format: cell-based, human; details: 48 h, A2 10 μg/ml, Annexin V positive cells, mean of three experiments

## Cn1c(CCCC(=O)O)nc2cc(N(CCCl)CCCl)ccc21 [Bendamustine, 4-[5-[Bis(2-chloroethyl)amino]-1-methylbenzimidazol-2-yl]butanoic acid]
[1]
  anti-tumor effect in words: significant anti-tumor effect
[2]
  tolerability in words: resulted in weight loss
[2]; listed as bendamustine
  tolerability in words: moderately tolerated
[2]; within the first week of treatment
  body weight loss in median: up to 7.9%
[3]
  anti-tumor effect in words: significant inhibition of tumor growth
[3]; listed as bendamustine
  anti-tumor effect in words: growth inhibited
[3]; 7 mice per group
  CR (complete tumor regression): 0 x/7
  PR (partial tumor regression): 0 x/7
[3]; median, antibody A2 10 mg/kg i.p. twice weekly, bendamustine 20 mg/kg i.p. two injections
  TGI: 57%
[4]; bendamustine 200 μM column
  % apoptotic cells: 10%
[4]; bendamustine 400 μM column
  % apoptotic cells: 13%
[5]; bendamustine 100 μM column
  % apoptotic cells: 19%
[5]; bendamustine 400 μM column
  % apoptotic cells: 35%
